Data published in PubChem BioAssay (NCI).
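Where inhibition never reached the appropriate level, the endpoint shown equals the highest concentration tested. Otherwise, values were interpolated linearly from a five-concentration, 48-hour dose response in 96-well plates. The concentration for full growth arrest is given as TGI.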

What was measured:
Assay in all cases: inhibition of tumour cell growth, NCI panel, 48 h
A549 NSCLC = tested on: A549 NSCLC
HOP-92 NSCLC = tested on: HOP-92 NSCLC
OVCAR-4 ovarian = tested on: OVCAR-4 ovarian
SK-MEL-5 melanoma = tested on: SK-MEL-5 melanoma
OVCAR-5 ovarian = tested on: OVCAR-5 ovarian
DLD-1 colon = tested on: DLD-1 colon
CCRF-CEM leukemia = tested on: CCRF-CEM leukemia
HOP-62 NSCLC = tested on: HOP-62 NSCLC
TK-10 renal = tested on: TK-10 renal
SNB-78 CNS = tested on: SNB-78 CNS
HCT-15 colon = tested on: HCT-15 colon
DMS 114 small cell lung = tested on: DMS 114 small cell lung
OVCAR-8 ovarian = tested on: OVCAR-8 ovarian
SK-OV-3 ovarian = tested on: SK-OV-3 ovarian
NCI-H522 lung = tested on: NCI-H522 lung
HL-60(TB) leukemia = tested on: HL-60(TB) leukemia
SN12C renal = tested on: SN12C renal
OVCAR-3 ovarian = tested on: OVCAR-3 ovarian
ACHN renal = tested on: ACHN renal
RPMI-8226 leukemia = tested on: RPMI-8226 leukemia
SF-295 CNS = tested on: SF-295 CNS
KM20L2 colon = tested on: KM20L2 colon
SK-MEL-28 melanoma = tested on: SK-MEL-28 melanoma
K-562 leukemia = tested on: K-562 leukemia
MOLT-4 leukemia = tested on: MOLT-4 leukemia
SF-268 CNS = tested on: SF-268 CNS
SR leukemia = tested on: SR leukemia
UO-31 renal = tested on: UO-31 renal
M19-MEL melanoma = tested on: M19-MEL melanoma
XF 498 CNS = tested on: XF 498 CNS
SK-MEL-2 melanoma = tested on: SK-MEL-2 melanoma
M14 melanoma = tested on: M14 melanoma
LXFL 529 NSCLC = tested on: LXFL 529 NSCLC
DMS 273 small cell lung = tested on: DMS 273 small cell lung
U251 CNS = tested on: U251 CNS
HT29 colon = tested on: HT29 colon
IGROV1 ovarian = tested on: IGROV1 ovarian
SNB-75 CNS = tested on: SNB-75 CNS
SW-620 colon = tested on: SW-620 colon
HCC-2998 colon = tested on: HCC-2998 colon
A498 renal = tested on: A498 renal
SNB-19 CNS = tested on: SNB-19 CNS
HCT-116 colon = tested on: HCT-116 colon
CAKI-1 renal = tested on: CAKI-1 renal
NCI-H460 lung = tested on: NCI-H460 lung
KM12 colon = tested on: KM12 colon
NCI-H23 lung = tested on: NCI-H23 lung
MALME-3M melanoma = tested on: MALME-3M melanoma
SF-539 CNS = tested on: SF-539 CNS
COLO 205 colon = tested on: COLO 205 colon
NCI-H226 lung = tested on: NCI-H226 lung
UACC-257 melanoma = tested on: UACC-257 melanoma
UACC-62 melanoma = tested on: UACC-62 melanoma
EKVX NSCLC = tested on: EKVX NSCLC
HOP-18 NSCLC = tested on: HOP-18 NSCLC
786-0 renal = tested on: 786-0 renal
LOX IMVI melanoma = tested on: LOX IMVI melanoma
RXF 393 renal = tested on: RXF 393 renal

## COC(=O)C1=COC2OC3/C(=C\c4ccc(O)c(OC)c4)C(=O)OC34C=CC1C24 (stereo not drawn)
A549 NSCLC
  TGI: 32.4 µM
HOP-92 NSCLC
  TGI: 44.6 µM
OVCAR-4 ovarian
  TGI: 34.4 µM
SK-MEL-5 melanoma
  TGI: > 100 µM
OVCAR-5 ovarian
  TGI: 32.6 µM
DLD-1 colon
  TGI: 32.5 µM
CCRF-CEM leukemia
  TGI: 49.2 µM
HOP-62 NSCLC
  TGI: 39.5 µM
TK-10 renal
  TGI: 31 µM
SNB-78 CNS
  TGI: 39.4 µM
HCT-15 colon
  TGI: 27.7 µM
DMS 114 small cell lung
  TGI: 39.5 µM
OVCAR-8 ovarian
  TGI: 37.7 µM
SK-OV-3 ovarian
  TGI: 31 µM
NCI-H522 lung
  TGI: 28.8 µM
HL-60(TB) leukemia
  TGI: 27.7 µM
SN12C renal
  TGI: 35.1 µM
OVCAR-3 ovarian
  TGI: 28.2 µM
ACHN renal
  TGI: 28.3 µM
RPMI-8226 leukemia
  TGI: > 100 µM
SF-295 CNS
  TGI: 32.5 µM
KM20L2 colon
  TGI: 33.6 µM
SK-MEL-28 melanoma
  TGI: 33.7 µM
K-562 leukemia
  TGI: 37.6 µM
MOLT-4 leukemia
  TGI: > 100 µM
SF-268 CNS
  TGI: 35.3 µM
SR leukemia
  TGI: > 100 µM
UO-31 renal
  TGI: 28.3 µM
M19-MEL melanoma
  TGI: 27.3 µM
XF 498 CNS
  TGI: 18.4 µM
SK-MEL-2 melanoma
  TGI: 23.7 µM
M14 melanoma
  TGI: 14.7 µM
LXFL 529 NSCLC
  TGI: 27.1 µM
DMS 273 small cell lung
  TGI: 30 µM
U251 CNS
  TGI: 28.5 µM
HT29 colon
  TGI: 33.5 µM
IGROV1 ovarian
  TGI: 40.3 µM
SNB-75 CNS
  TGI: 25.2 µM
SW-620 colon
  TGI: 35.9 µM
HCC-2998 colon
  TGI: 22.9 µM
A498 renal
  TGI: 45.4 µM
SNB-19 CNS
  TGI: 35.3 µM
HCT-116 colon
  TGI: 34.4 µM
CAKI-1 renal
  TGI: 41.7 µM
NCI-H460 lung
  TGI: 31.7 µM
KM12 colon
  TGI: 26.8 µM
NCI-H23 lung
  TGI: 32.5 µM
MALME-3M melanoma
  TGI: 31 µM
SF-539 CNS
  TGI: 31.2 µM
COLO 205 colon
  TGI: 43.8 µM
NCI-H226 lung
  TGI: 29.2 µM
UACC-257 melanoma
  TGI: 32.5 µM
UACC-62 melanoma
  TGI: 36.4 µM

## CN(C)CC(C)(C)C(/C=C/c1ccccc1)=N\Nc1ccccc1
A549 NSCLC
  TGI: 4.19 µM
EKVX NSCLC
  TGI: 16.4 µM
OVCAR-4 ovarian
  TGI: 17.9 µM
SK-MEL-5 melanoma
  TGI: 20.7 µM
OVCAR-5 ovarian
  TGI: 2 µM
DLD-1 colon
  TGI: 11.6 µM
CCRF-CEM leukemia
  TGI: 16.2 µM
HOP-62 NSCLC
  TGI: 64.7 µM
TK-10 renal
  TGI: 3.48 µM
SNB-78 CNS
  TGI: 26.8 µM
HCT-15 colon
  TGI: 2.46 µM
DMS 114 small cell lung
  TGI: 21.8 µM
OVCAR-8 ovarian
  TGI: 27.5 µM
SK-OV-3 ovarian
  TGI: 38.8 µM
NCI-H522 lung
  TGI: 23.9 µM
HL-60(TB) leukemia
  TGI: 7.49 µM
SN12C renal
  TGI: 17.6 µM
OVCAR-3 ovarian
  TGI: 14 µM
ACHN renal
  TGI: 1.25 µM
RPMI-8226 leukemia
  TGI: 19.4 µM
SF-295 CNS
  TGI: 0.907 µM
HOP-18 NSCLC
  TGI: 73.1 µM
KM20L2 colon
  TGI: 0.0605 µM
SK-MEL-28 melanoma
  TGI: 10.8 µM
K-562 leukemia
  TGI: 0.828 µM
MOLT-4 leukemia
  TGI: 17.3 µM
786-0 renal
  TGI: 14.8 µM
SF-268 CNS
  TGI: 15.4 µM
UO-31 renal
  TGI: 0.843 µM
M19-MEL melanoma
  TGI: 22.3 µM
SK-MEL-2 melanoma
  TGI: 31 µM
M14 melanoma
  TGI: 20.3 µM
LXFL 529 NSCLC
  TGI: 0.446 µM
DMS 273 small cell lung
  TGI: 11.2 µM
U251 CNS
  TGI: 13.4 µM
HT29 colon
  TGI: 27.9 µM
IGROV1 ovarian
  TGI: 17.9 µM
SNB-75 CNS
  TGI: 46.8 µM
SW-620 colon
  TGI: 10.4 µM
A498 renal
  TGI: 37.9 µM
LOX IMVI melanoma
  TGI: 15.7 µM
SNB-19 CNS
  TGI: > 100 µM
HCT-116 colon
  TGI: 15.7 µM
NCI-H460 lung
  TGI: 17.8 µM
KM12 colon
  TGI: 26.6 µM
NCI-H23 lung
  TGI: 23.5 µM
MALME-3M melanoma
  TGI: 26.6 µM
RXF 393 renal
  TGI: 32.8 µM
SF-539 CNS
  TGI: 0.897 µM
COLO 205 colon
  TGI: 11.3 µM
UACC-257 melanoma
  TGI: 23.4 µM
UACC-62 melanoma
  TGI: 1.07 µM

## CCOP(=O)(OCC)/C(C#N)=C/c1ccc[nH]1
A549 NSCLC
  TGI: > 100 µM
HOP-92 NSCLC
  TGI: > 100 µM
OVCAR-4 ovarian
  TGI: > 100 µM
SK-MEL-5 melanoma
  TGI: > 100 µM
OVCAR-5 ovarian
  TGI: > 100 µM
DLD-1 colon
  TGI: > 100 µM
CCRF-CEM leukemia
  TGI: > 100 µM
HOP-62 NSCLC
  TGI: > 100 µM
TK-10 renal
  TGI: > 100 µM
SNB-78 CNS
  TGI: > 100 µM
HCT-15 colon
  TGI: > 100 µM
DMS 114 small cell lung
  TGI: > 100 µM
OVCAR-8 ovarian
  TGI: > 100 µM
SK-OV-3 ovarian
  TGI: > 100 µM
NCI-H522 lung
  TGI: > 100 µM
HL-60(TB) leukemia
  TGI: > 100 µM
SN12C renal
  TGI: > 100 µM
OVCAR-3 ovarian
  TGI: > 100 µM
ACHN renal
  TGI: > 100 µM
RPMI-8226 leukemia
  TGI: > 100 µM
SF-295 CNS
  TGI: > 100 µM
HOP-18 NSCLC
  TGI: > 100 µM
KM20L2 colon
  TGI: > 100 µM
SK-MEL-28 melanoma
  TGI: > 100 µM
K-562 leukemia
  TGI: > 100 µM
MOLT-4 leukemia
  TGI: > 100 µM
786-0 renal
  TGI: > 100 µM
SF-268 CNS
  TGI: > 100 µM
SR leukemia
  TGI: > 100 µM
UO-31 renal
  TGI: > 100 µM
M19-MEL melanoma
  TGI: > 100 µM
SK-MEL-2 melanoma
  TGI: > 100 µM
M14 melanoma
  TGI: > 100 µM
LXFL 529 NSCLC
  TGI: > 100 µM
DMS 273 small cell lung
  TGI: > 100 µM
U251 CNS
  TGI: > 100 µM
HT29 colon
  TGI: > 100 µM
SNB-75 CNS
  TGI: > 100 µM
SW-620 colon
  TGI: > 100 µM
LOX IMVI melanoma
  TGI: > 100 µM
SNB-19 CNS
  TGI: > 100 µM
HCT-116 colon
  TGI: > 100 µM
CAKI-1 renal
  TGI: > 100 µM
NCI-H460 lung
  TGI: > 100 µM
KM12 colon
  TGI: > 100 µM
NCI-H23 lung
  TGI: > 100 µM
MALME-3M melanoma
  TGI: > 100 µM
RXF 393 renal
  TGI: > 100 µM
SF-539 CNS
  TGI: > 100 µM
COLO 205 colon
  TGI: > 100 µM
NCI-H226 lung
  TGI: > 100 µM
UACC-257 melanoma
  TGI: > 100 µM
UACC-62 melanoma
  TGI: > 100 µM
